From PMC3023844 (Planta medica, 2010)
Like-named read-outs stand apart in the source and are kept apart here.

Experiments:
CYP3A (intestinal) [1] = biological target: T1, CYP3A (intestinal) (Homo sapiens, UniProt P08684); experiment: in vitro; details: microsomes, pH 7.4, IC50, HIM as the enzyme source
[2] = biological target: recombinant CYP3A4 (rCYP3A4) (Homo sapiens, UniProt P08684); experiment: IC50 of triterpenes for midazolam 1′-hydroxylation using recombinant CYP3A4
CYP3A (intestinal) [3] = biological target: T1, CYP3A (intestinal); details: microsomes, pH 7.4
CYP3A = details: read-out: IC50 or Ki values determined previously; CYP3A inhibitors in grapefruit juice; cited from earlier work

| Compound | IC50 (CYP3A (intestinal) [1]) [µM] | IC50 [2] [µM] | IC50 (CYP3A (intestinal) [3]) [µM] | IC50 (CYP3A) [µM] |
| --- | --- | --- | --- | --- |
| C[C@H]1[C@H](C)CC[C@]2(C(=O)O)CC[C@]3(C)C(=CC[C@@H]4[C@@]5(C)C[C@@H](O)[C@H](O)C(C)(C)[C@@H]5CC[C@]43C)[C@H]12 [Corosolic acid (3), 2α,3β-dihydroxyurs-12-en-28-oic acid] | 8.8 ± 0.9 | 4.3 ± 0.3 | – | – |
| CC1(C)CC[C@]2(C(=O)O)CC[C@]3(C)C(=CC[C@@H]4[C@@]5(C)C[C@@H](O)[C@H](O)C(C)(C)[C@@H]5CC[C@]43C)[C@@H]2C1 [Maslinic acid (2), 2α,3β-dihydroxyolean-12-en-28-oic acid] | – | 2.8 ± 0.2 | 7.4 ± 0.5 | – |
| CC(=CCOc1c2ccoc2cc2oc(=O)ccc12)CCC(O)C(C)(C)O (centres unmarked) [6′,7′-dihydroxybergamottin] | – | – | – | 1 to 5 |
